Results published in US8242289B2, “Alkyl-substituted tetrahydropyrans as flavoring substances” (SYMRISE AG, priority 2009, dated 2012).

Test: Sensory comparison of flavored products with the flavor not according to the invention
Type: in vivo

CCC1OC(C)(CC)CCC1C(C)C (stereo not shown) [2,6-diethyl-5-isopropyl-2-methyl-tetrahydropyran]
feeling of freshness (standard chewing gum (Example 2.12), 2% flavor composition): more intense feeling of freshness
fullness in the mouth (standard chewing gum (Example 2.12), 2% flavor composition, in particular at the start of chewing): greater fullness in the mouth
boost effect (sugar-free chewing gum (Example 2.11), 1% cinnamon type cool flavor): distinct “boost effect”
feeling of freshness (sugar-free chewing gum (Example 2.11), 1% flavor composition, in particular initial phase of consumption): more intense feeling of freshness
feeling in the mouth (toothpaste 'silica opaque' (Example 2.15), 1% flavor composition): fresher feeling in the mouth
fullness in the mouth (toothpaste 'silica opaque' (Example 2.15), 1% flavor composition, during brushing): increased fullness in the mouth
feeling of freshness (toothpaste, phosphate base (Example 2.13), 1% flavor composition, in particular at the start of brushing): distinct feeling of freshness
effect of the flavor when brushing (toothpaste, phosphate base (Example 2.13), 1% spearmint type flavor): intensified effect of the flavor when brushing
retronasal cooling (toothpaste, transparent gel (Example 2.14), 1% flavor composition): distinct retronasal cooling
freshness profile (toothpaste, transparent gel (Example 2.14), 1% flavor composition, during brushing): clearer freshness profile
